Measured values from patent publication US20260315487A1, “IKK-ALPHA INHIBITORS” (Cancer Research Technology Limited, priority 2023, published 2026).

Key:
haspin = target: T1, haspin (Homo sapiens, UniProt Q8TF76); test: kinome profiling at 1 μM, haspin; type: biochemical
T1 sequence (Q8TF76 1-798): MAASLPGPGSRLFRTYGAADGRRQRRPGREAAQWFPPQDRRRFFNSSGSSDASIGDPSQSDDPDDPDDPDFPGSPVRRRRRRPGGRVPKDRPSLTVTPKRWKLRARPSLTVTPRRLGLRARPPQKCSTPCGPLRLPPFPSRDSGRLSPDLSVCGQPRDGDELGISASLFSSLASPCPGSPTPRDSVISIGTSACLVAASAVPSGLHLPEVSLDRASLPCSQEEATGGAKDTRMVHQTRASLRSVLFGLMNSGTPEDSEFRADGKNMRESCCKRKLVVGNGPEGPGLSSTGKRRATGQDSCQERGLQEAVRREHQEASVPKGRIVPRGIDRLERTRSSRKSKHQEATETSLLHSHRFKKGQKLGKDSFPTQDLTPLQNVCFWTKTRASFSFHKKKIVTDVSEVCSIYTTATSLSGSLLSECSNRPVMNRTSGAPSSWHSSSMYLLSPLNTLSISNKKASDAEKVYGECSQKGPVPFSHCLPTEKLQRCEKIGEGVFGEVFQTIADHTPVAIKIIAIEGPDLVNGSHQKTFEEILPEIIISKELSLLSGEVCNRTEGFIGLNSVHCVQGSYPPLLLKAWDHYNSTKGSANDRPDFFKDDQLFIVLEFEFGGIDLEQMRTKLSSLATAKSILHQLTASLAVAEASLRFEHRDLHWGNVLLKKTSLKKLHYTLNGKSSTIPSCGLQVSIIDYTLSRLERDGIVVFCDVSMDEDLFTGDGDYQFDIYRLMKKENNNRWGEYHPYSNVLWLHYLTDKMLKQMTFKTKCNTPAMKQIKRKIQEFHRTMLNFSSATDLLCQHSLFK
Description: We profiled three compounds from the series across the kinome (FIG. 11). […] To identify the structural drivers for CDK inhibition, we obtained X-ray crystal structures of 5 y and 6 g SU1336 and SU1349 with CDK-2 (FIG. 12A) to potentially identify possible routes towards introducing selectivity for IKKα over the CDK enzymes as well as IKKβ. […] All three derivatives form complexes with CDK2 with the pyrrolo[2,3 -b]pyridine H-bonding to GK+3 (Leu 83 ) and the aminoindazole projected towards the G-loop (FIG. 12A), forming H-bonds with Glu 51 and Lys 33 at the back of the pocket. The adoption of the 4 SU1253 -type orientation, rather than the flipped pose observed in IKKα, is probably facilitated by Tr-stacking between the aminoindazole and the GK residue, which in the CDKs is Phe, rather than Met. […] For 6 g SU1349, the hydrophobic pendant benzyloxy group points out into solvent, but can form face-to-edge Tr-Tr interactions with Phe 82 and His 84 from the hinge. Exchanging the hydrophobic pendant benzyloxy group for the morpholinoethyl-containing substituent in 5 y SU1336 removes any direct interaction with these hinge residues, preferring to sit in a more solvent-exposed position, as befits a basic side chain that will be protonated at physiological pH (FIG. 12B).

IKKα = target: T2, IKKα (Homo sapiens, UniProt O15111); test: activity and selectivity in cells; type: cell-based
T2 sequence (O15111 1-745): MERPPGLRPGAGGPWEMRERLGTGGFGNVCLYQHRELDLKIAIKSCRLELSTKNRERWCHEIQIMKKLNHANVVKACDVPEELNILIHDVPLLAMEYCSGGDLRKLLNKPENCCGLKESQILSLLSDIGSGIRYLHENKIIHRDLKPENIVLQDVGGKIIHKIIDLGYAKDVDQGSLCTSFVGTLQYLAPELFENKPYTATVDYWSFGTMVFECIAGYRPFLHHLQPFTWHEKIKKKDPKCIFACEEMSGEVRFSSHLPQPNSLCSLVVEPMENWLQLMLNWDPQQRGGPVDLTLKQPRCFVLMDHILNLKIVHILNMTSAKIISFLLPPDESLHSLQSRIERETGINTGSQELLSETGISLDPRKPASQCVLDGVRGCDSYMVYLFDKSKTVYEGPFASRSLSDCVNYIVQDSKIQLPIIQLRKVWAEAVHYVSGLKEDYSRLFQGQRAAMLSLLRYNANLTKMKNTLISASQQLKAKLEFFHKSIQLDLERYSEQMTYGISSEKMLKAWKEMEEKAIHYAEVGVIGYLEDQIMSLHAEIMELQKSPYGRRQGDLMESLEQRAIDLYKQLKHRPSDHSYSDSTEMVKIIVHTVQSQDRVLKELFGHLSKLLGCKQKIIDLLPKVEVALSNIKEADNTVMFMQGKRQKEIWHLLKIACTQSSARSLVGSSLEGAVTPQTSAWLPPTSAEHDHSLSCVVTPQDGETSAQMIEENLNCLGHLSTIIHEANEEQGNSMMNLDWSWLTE

mouse hepatocytes = test: mouse hepatocyte clearance (cryopreserved pooled mouse CD1 hepatocytes); type: in vitro ADME; conditions: mouse hepatocytes
Procedure: Pharmacokinetic studies were contracted to Sygnature Discovery Limited. Intrinsic clearance and half life were determined using cryopreserved pooled mouse CD1 hepatocytes. Test compounds were analysed at 1 μM in Williams Media E buffer (0.01 % DMSO) at a cell density of 0.5×10^6 cells mL^−1 . Cells were incubated at 37° C. for one hour with shaking and compound depletion was measured by LC-MS/MS at six timepoints (0.25, 5, 10, 20, 40, and 60 minutes).

[1] = in vivo murine PK in CD1 mice; parameters: species or system mouse; conditions: 10 mg/kg, mean
Procedure: […] Prior formulation/solubility assessment was performed in routine excipients e.g., DMSO: cyclodextrin or HMPC/Tween 80 . Intravenous time points were taken at 5 min, 15 min, 30 min, 1, 2, 4, 8, and 24 hours and intraperitoneal time points were taken at 15 min, 30 min, 1, 2, 4, 6, 8, and 24 hours. Blood samples were prepared by protein precipitation with methanol or acetonitrile containing internal standard and then measured quantitative bioanalysis by LC-MS/MS.

Turbidimetric solubility = type: physicochemical

inhibition at 1 µM (haspin) | Cmax ([1]; I.P.) | F ([1]; I.P.) | Terminal t1/2 ([1]; I.P.) | Tmax ([1]; I.P.) | Clearance ([1]; I.V.) | Terminal t1/2 ([1]; I.V.) | Vss ([1]; I.V.) | Structure (SMILES) | activity and selectivity in cells, in words (IKKα) | in vitro murine clearance, in words (mouse hepatocytes) | solubility, in words (Turbidimetric solubility)
> 80% |  |  |  |  |  |  |  | Nc1n[nH]c2ccc(-c3ccnc4[nH]c(-c5cccc(OCc6ccccc6)c5)cc34)cc12 [5r SU1261, 5-(2-(3-(benzyloxy)phenyl)-1 H-pyrrolo[2,3-b]pyridin-4-yl)-1 H-indazol-3-amine] | activity and selectivity being recapitulated in cells |  | 
 | 199 ng/mL | 9.3% | 3.02 h | 0.44 h | 16.7 mL/min/kg | 4.18 h | 0.39 L/kg | Nc1n[nH]c2ccc(-c3ccnc4[nH]c(-c5ccnc(OCc6ccccc6)c5)cc34)cc12 [6g SU1349, 5-(2-(2-(Benzyloxy)pyridin-4-yl)-1 H-pyrrolo[2,3-b]pyridin-4-yl)-1 H-indazol-3-amine] |  | sufficiently low in vitro murine clearance | most soluble in the series that displayed selectivity
